Experimental data from ChEMBL document CHEMBL1123319, “Synthesis and biological activity of 5-phenylselenenyl-substituted pyrimidine nucleosides” (J Med Chem, 1986).
Active and inactive are the calls of the source. The calls are words filed in the database; no cut-off is given here.

Tests used:
[1] = target: Thymidylate synthase (Mus musculus) (UniProt P07607); assay: compound was evaluated for its ability to inhibit tritium release using 1 uM [5-3H]-dUrd for the cellular enzyme assay; Inactive
Human alphaherpesvirus 1 = assay: (§1) Compound was tested in mice for the cytotoxicity against the herpes simplex virus type 1 (strain F) in plaque; Inactive; type: organism-based; details: human alphaherpesvirus 1, in vivo
[2] = target: Thymidylate synthase (Mus musculus) (UniProt P07607); assay: Compound was evaluated for its ability to inhibit tritium release using 1 uM [5-3H]-dCyd for the cellular enzyme assay.
Mus musculus = species: Mus musculus; assay: as §1; type: functional, organism-based
HL-60 [3] = assay: Anticancer activity was evaluated for the compound against parent promyelocytic leukemia cell line (HL-60-GHPRT+/dCK+); type: functional; details: Homo sapiens, read-out: ED50 (the source's name)
HL-60 [4] = assay: Anticancer activity of the compound against ara-C resistant promyelocytic leukemia cell line that is Cyd-kinase deficient (HL-60-HGPRT-/dCK-) is determined; type: functional; details: Homo sapiens, read-out: ED50 (the source's name)
[5] = target: Thymidylate synthase (Mus musculus) (UniProt P07607); assay: Inhibition of thymidylate synthase in L1210 cells; type: cell-based
[6] = compound was evaluated for its ability to inhibit tritium release using 1 uM [5-3H]-dUrd for the cellular enzyme assay.; type: functional
HL-60 [7] = assay: Anticancer activity was evaluated for the compound against ara-C resistant promyelocytic leukemia cell line that is Cyd-kinase deficient (HL-60-HGPRT-/dCK-); type: functional; details: Homo sapiens, read-out: ID50 (the source's name)

Thymidylate synthase (Mus musculus), sequence (P07607 whole entry, looked up): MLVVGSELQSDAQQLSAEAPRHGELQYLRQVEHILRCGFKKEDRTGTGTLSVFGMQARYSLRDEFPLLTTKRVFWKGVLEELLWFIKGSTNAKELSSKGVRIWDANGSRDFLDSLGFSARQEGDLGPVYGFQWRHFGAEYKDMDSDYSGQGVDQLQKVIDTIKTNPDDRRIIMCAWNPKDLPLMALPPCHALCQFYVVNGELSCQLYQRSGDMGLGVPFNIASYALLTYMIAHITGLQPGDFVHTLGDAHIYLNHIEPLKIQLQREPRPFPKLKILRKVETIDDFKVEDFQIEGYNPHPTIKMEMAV

O=c1[nH]c(=O)n([C@H]2C[C@H](O)[C@@H](CO)O2)cc1[Se]c1ccccc1
ID50 [1]: inactive
LD50 (Human alphaherpesvirus 1): Not Active
ID50 [2]: 70 µM

O=c1[nH]c(=O)n([C@@H]2O[C@H](CO)[C@@H](O)[C@@H]2O)cc1[Se]c1ccccc1
LD50 (Mus musculus): inactive
EC50 (HL-60 [3]): 88 µM

Nc1ccn([C@@H]2O[C@H](CO)[C@@H](O)[C@@H]2O)c(=O)n1 [CYTARABINE]
EC50 (HL-60 [4]): 30 µM
EC50 (HL-60 [3]): 0.047 µM
ED50 [5]: 0.03 µM

Nc1nc(=O)n([C@@H]2O[C@H](CO)[C@@H](O)[C@@H]2O)cc1[Se]c1ccccc1
ID50 [6]: 60 µM
IC50 (HL-60 [7]): 375 µM
ED50 [5]: 25 µM
